Results as given in PubChem BioAssay (NCI).
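Interpolation was linear, between the two tested concentrations surrounding the appropriate level; five concentrations were tested over 48 hours in 96-well plates. GI50: concentration for 50% inhibition of growth. TGI marks complete inhibition of growth.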

Legend:
Test in all cases: growth of human tumour cells (NCI), 48 h
EKVX NSCLC = test system: EKVX NSCLC
SK-MEL-2 melanoma = test system: SK-MEL-2 melanoma
SNB-75 CNS = test system: SNB-75 CNS
MCF7 breast = test system: MCF7 breast
HCC-2998 colon = test system: HCC-2998 colon
SR leukemia = test system: SR leukemia
NCI-H522 lung = test system: NCI-H522 lung
OVCAR-5 ovarian = test system: OVCAR-5 ovarian
SK-OV-3 ovarian = test system: SK-OV-3 ovarian
A498 renal = test system: A498 renal
NCI/ADR-RES ovarian = test system: NCI/ADR-RES ovarian
NCI-H23 lung = test system: NCI-H23 lung
HOP-62 NSCLC = test system: HOP-62 NSCLC
MOLT-4 leukemia = test system: MOLT-4 leukemia
NCI-H226 lung = test system: NCI-H226 lung
U251 CNS = test system: U251 CNS
RXF 393 renal = test system: RXF 393 renal
CAKI-1 renal = test system: CAKI-1 renal
UACC-257 melanoma = test system: UACC-257 melanoma
SN12C renal = test system: SN12C renal
DU-145 prostate = test system: DU-145 prostate
TK-10 renal = test system: TK-10 renal
HT29 colon = test system: HT29 colon
ACHN renal = test system: ACHN renal
BT-549 breast = test system: BT-549 breast
K-562 leukemia = test system: K-562 leukemia
OVCAR-4 ovarian = test system: OVCAR-4 ovarian
NCI-H460 lung = test system: NCI-H460 lung
HOP-92 NSCLC = test system: HOP-92 NSCLC
HCT-116 colon = test system: HCT-116 colon
SF-268 CNS = test system: SF-268 CNS
COLO 205 colon = test system: COLO 205 colon
SK-MEL-28 melanoma = test system: SK-MEL-28 melanoma
LOX IMVI melanoma = test system: LOX IMVI melanoma
SW-620 colon = test system: SW-620 colon
OVCAR-3 ovarian = test system: OVCAR-3 ovarian
SNB-19 CNS = test system: SNB-19 CNS
A549 NSCLC = test system: A549 NSCLC
T-47D breast = test system: T-47D breast
UO-31 renal = test system: UO-31 renal
HS 578T breast = test system: HS 578T breast
MALME-3M melanoma = test system: MALME-3M melanoma
MDA-MB-231 breast = test system: MDA-MB-231 breast
CCRF-CEM leukemia = test system: CCRF-CEM leukemia
786-0 renal = test system: 786-0 renal
SF-539 CNS = test system: SF-539 CNS
SK-MEL-5 melanoma = test system: SK-MEL-5 melanoma
M14 melanoma = test system: M14 melanoma
SF-295 CNS = test system: SF-295 CNS
MDA-MB-435 = test system: MDA-MB-435
OVCAR-8 ovarian = test system: OVCAR-8 ovarian
IGROV1 ovarian = test system: IGROV1 ovarian
UACC-62 melanoma = test system: UACC-62 melanoma
KM12 colon = test system: KM12 colon
HL-60(TB) leukemia = test system: HL-60(TB) leukemia
PC-3 prostate = test system: PC-3 prostate

## CCN(CC)CCOc1nc2c3ccc(Cl)cc3nn2c2ccccc12
EKVX NSCLC
  GI50: 2.62 µM
  TGI: 9.71 µM
SK-MEL-2 melanoma
  GI50: 2.16 µM
  TGI: 4.94 µM
SNB-75 CNS
  GI50: 1.58 µM
  TGI: 8.35 µM
MCF7 breast
  GI50: 1.96 µM
  TGI: 6.08 µM
HCC-2998 colon
  GI50: 1.62 µM
  TGI: 3.43 µM
SR leukemia
  GI50: 2.12 µM
  TGI: 15.8 µM
NCI-H522 lung
  GI50: 2.37 µM
  TGI: 6.43 µM
OVCAR-5 ovarian
  GI50: 2.67 µM
  TGI: 10.3 µM
SK-OV-3 ovarian
  GI50: 2.49 µM
  TGI: 21.4 µM
A498 renal
  GI50: 1.62 µM
  TGI: 3.05 µM
NCI/ADR-RES ovarian
  GI50: 1.89 µM
  TGI: 8.24 µM
NCI-H23 lung
  GI50: 1.81 µM
  TGI: 4.9 µM
HOP-62 NSCLC
  GI50: 2.38 µM
  TGI: 12.5 µM
MOLT-4 leukemia
  GI50: 2.77 µM
  TGI: > 100 µM
NCI-H226 lung
  GI50: 2.06 µM
  TGI: 10.2 µM
U251 CNS
  GI50: 2.11 µM
  TGI: 5.4 µM
RXF 393 renal
  GI50: 1.75 µM
  TGI: 3.94 µM
CAKI-1 renal
  GI50: 1.45 µM
  TGI: 2.97 µM
UACC-257 melanoma
  GI50: 1.89 µM
  TGI: 4.02 µM
SN12C renal
  GI50: 2.21 µM
  TGI: 10.1 µM
DU-145 prostate
  GI50: 2.4 µM
  TGI: 6.07 µM
TK-10 renal
  GI50: 3.88 µM
  TGI: 16.1 µM
HT29 colon
  GI50: 2.04 µM
  TGI: 9.9 µM
ACHN renal
  GI50: 1.32 µM
  TGI: 3.36 µM
BT-549 breast
  GI50: 3.54 µM
  TGI: 17.5 µM
K-562 leukemia
  GI50: 2.73 µM
  TGI: > 100 µM
OVCAR-4 ovarian
  GI50: 2.78 µM
  TGI: 9.06 µM
NCI-H460 lung
  GI50: 2.61 µM
  TGI: 7.5 µM
HOP-92 NSCLC
  GI50: 1.4 µM
  TGI: 6.41 µM
HCT-116 colon
  GI50: 1.4 µM
  TGI: 3.53 µM
SF-268 CNS
  GI50: 2.89 µM
  TGI: 11 µM
COLO 205 colon
  GI50: 1.55 µM
  TGI: 4.55 µM
SK-MEL-28 melanoma
  GI50: 1.89 µM
  TGI: 3.57 µM
LOX IMVI melanoma
  GI50: 1.44 µM
  TGI: 3.05 µM
SW-620 colon
  GI50: 1.42 µM
  TGI: 4.13 µM
OVCAR-3 ovarian
  GI50: 2.86 µM
  TGI: 9.42 µM
SNB-19 CNS
  GI50: 3.28 µM
  TGI: 36.1 µM
A549 NSCLC
  GI50: 1.87 µM
  TGI: 4.63 µM
T-47D breast
  GI50: 3.51 µM
  TGI: 18.8 µM
UO-31 renal
  GI50: 1.07 µM
  TGI: 2.66 µM
HS 578T breast
  GI50: 2.59 µM
  TGI: 11.3 µM
MALME-3M melanoma
  GI50: 1.6 µM
  TGI: 3.22 µM
MDA-MB-231 breast
  GI50: 2.02 µM
  TGI: 7.03 µM
CCRF-CEM leukemia
  GI50: 2.25 µM
  TGI: 12.8 µM
786-0 renal
  GI50: 1.69 µM
  TGI: 3.67 µM
SF-539 CNS
  GI50: 1.71 µM
  TGI: 3.84 µM
SK-MEL-5 melanoma
  GI50: 1.73 µM
  TGI: 3.12 µM
M14 melanoma
  GI50: 1.76 µM
  TGI: 3.95 µM
SF-295 CNS
  GI50: 1.79 µM
  TGI: 4.18 µM
MDA-MB-435
  GI50: 1.15 µM
  TGI: 2.79 µM
OVCAR-8 ovarian
  GI50: 2.64 µM
  TGI: 55.9 µM
IGROV1 ovarian
  GI50: 1.54 µM
  TGI: 4.62 µM
UACC-62 melanoma
  GI50: 1.79 µM
  TGI: 3.7 µM
KM12 colon
  GI50: 1.96 µM
  TGI: 4.69 µM
HL-60(TB) leukemia
  GI50: 2.06 µM
  TGI: 5.64 µM
PC-3 prostate
  GI50: 2.29 µM
  TGI: 9.94 µM
